Results taken from ChEMBL document CHEMBL1275532, “Potential for hepatitis C virus resistance to nitazoxanide or tizoxanide” (Antimicrob Agents Chemother, 2008).

What was measured:
[1] = system: Hepatitis C virus; test: Antiviral activity against HCV genotype 1b in RP7 replicon cell after 4 days by blot hybridization analysis; type: functional, organism-based, Hepacivirus hominis; conditions: 96 h
[2] = system: Hepatitis C virus; test: Antiviral activity against HCV genotype 1b in NTZ-11 replicon cell after 4 days by blot hybridization analysis; type: functional, organism-based, Hepacivirus hominis; conditions: NTZ-11, 96 h
[3] = system: Hepatitis C virus; test: Antiviral activity against HCV genotype 1b in TIZ-9 replicon cell after 4 days by blot hybridization analysis; type: functional, organism-based, Hepacivirus hominis; conditions: TIZ-9, 96 h
[4] = Cytotoxicity against human RP7 cell harboring HCV genotype 1b after 4 days by neutral red dye uptake assay; type: cell-based; conditions: RP7 cells harboring HCV genotype 1b
[5] = Cytotoxicity against human NTZ-11 cell harboring HCV genotype 1b after 4 days by neutral red dye uptake assay; type: cell-based; conditions: NTZ-11 cells harboring HCV genotype 1b
[6] = Cytotoxicity against human TIZ-9 cell harboring HCV genotype 1b after 4 days by neutral red dye uptake assay; type: cell-based; conditions: TIZ-9 cells harboring HCV genotype 1b
[7] = Selectivity Index, ratio of CC50 for RP7 cell harboring HCV genotype 1b to EC50 for HCV genotype 1b in RP7 replicon cell
[8] = Selectivity Index, ratio of CC50 for NTZ-11 cell harboring HCV genotype 1b to EC50 for HCV genotype 1b in NTZ-11 replicon cell
[9] = Selectivity Index, ratio of CC50 for TIZ-9 cell harboring HCV genotype 1b to EC50 for HCV genotype 1b in TIZ-9 replicon cell
[10] = system: Hepatitis C virus; test: Antiviral activity against HCV genotype 1b obtained from RP7 cells infected in Huh7.5 cell assessed as viral-induced colony formation efficiency at 10 uM after 10 to 14 days in presence of 125 ug/ml G418; type: functional, Hepacivirus hominis
[11] = system: Hepatitis C virus; test: Antiviral activity against HCV genotype 1b obtained from NTZ-11 cells infected in Huh7.5 cell assessed as viral-induced colony formation efficiency at 10 uM after 10 to 14 days in presence of 125 ug/ml G418; type: functional, Hepacivirus hominis
[12] = system: Hepatitis C virus; test: Antiviral activity against HCV genotype 1b obtained from TIZ-9 cells infected in Huh7.5 cell assessed as viral-induced colony formation efficiency at 10 uM after 10 to 14 days in presence of 125 ug/ml G418; type: functional, Hepacivirus hominis
[13] = system: Hepatitis C virus; test: Antiviral activity against HCV genotype 1a in replicon system; type: functional, organism-based, Hepacivirus hominis; conditions: subtype 1a
[14] = system: Hepatitis C virus; test: Antiviral activity against HCV genotype 1b in replicon system; type: functional, organism-based, Hepacivirus hominis
[15] = system: Hepatitis C virus; test: Antiviral activity against HCV genotype 1b obtained from RP7 cells infected in Huh7.5 cell assessed as viral-induced colony formation efficiency at 1 uM after 10 to 14 days in presence of 125 ug/ml G418; type: functional, Hepacivirus hominis
[16] = system: Hepatitis C virus; test: Antiviral activity against HCV genotype 1b obtained from NTZ-11 cells infected in Huh7.5 cell assessed as viral-induced colony formation efficiency at 1 uM after 10 to 14 days in presence of 125 ug/ml G418; type: functional, Hepacivirus hominis
[17] = system: Hepatitis C virus; test: Antiviral activity against HCV genotype 1b obtained from TIZ-9 cells infected in Huh7.5 cell assessed as viral-induced colony formation efficiency at 1 uM after 10 to 14 days in presence of 125 ug/ml G418; type: functional, Hepacivirus hominis

| Structure (SMILES) | EC50 [1] | EC90 [1] | EC50 [2] | EC90 [2] | EC50 [3] | EC90 [3] | CC50 at 96 h [4] | CC50 at 96 h [5] | CC50 at 96 h [6] | Ratio CC50/EC50 [7] | Ratio CC50/EC50 [8] | Ratio CC50/EC50 [9] | Activity [10] | Activity [11] | Activity [12] | EC50 [13] | EC50 [14] | Activity [15] | Activity [16] | Activity [17] |
| --- | --- | --- | --- | --- | --- | --- | --- | --- | --- | --- | --- | --- | --- | --- | --- | --- | --- | --- | --- | --- |
| C[C@@]1(O)[C@H](O)[C@@H](CO)O[C@H]1n1ccc(N)nc1=O | 2 µM | 9 µM | 1.9 µM | 6.1 µM | 2.2 µM | 8.9 µM | > 300 µM | > 300 µM | > 300 µM | >150 | >158 | >136 | 10% | 13% | 9% | – | – | – | – | – |
| CC(=O)Oc1ccccc1C(=O)Nc1ncc([N+](=O)[O-])s1 [NITAZOXANIDE] | 0.16 µM | 1.2 µM | 1.2 µM | 17 µM | 1.5 µM | 26 µM | 38 µM | 68 µM | 97 µM | 238 | 57 | 65 | – | – | – | 0.13 µM | – | – | – | – |
| NC(=O)c1ncn([C@@H]2O[C@H](CO)[C@@H](O)[C@H]2O)n1 [RIBAVIRIN] | 69 µM | 122 µM | 47 µM | 107 µM | 52 µM | 123 µM | 77 µM | 66 µM | 95 µM | 1.1 | 1.4 | 1.8 | – | – | – | – | – | – | – | – |
| O=C(Nc1ncc([N+](=O)[O-])s1)c1ccccc1O [TIZOXANIDE] | 0.15 µM | 0.94 µM | 1.1 µM | 18 µM | 2 µM | 35 µM | 25 µM | 74 µM | 92 µM | 167 | 67 | 46 | 0% | 0% | 0% | – | 0.15 µM | 7% | 8% | 12% |
